Assay results from patent US10092568B2, “CBP/Catenin antagonists for enhancing asymmetric division of somatic stem cells” (University of Southern California, priority 2010, dated 2018).

Legend:
[1] = system: MDA-MB-231 cells; experiment: Stem cell markers in triple negative breast cancer cell line; type: cell-based
Source text: This phenotype CD44^hi, CD24^lo has been associated with a subpopulation of cells that behave like a breast cancer stem/tumor initiating cell population (51). […] Beyond reduction of survivin message level, there is a gene expression profile consistent with the occurrence of a mesenchymal to epithelial (MET) transition (i.e., decreased expression of twist, vimentin and S100A4 and an increase in E-cadherin expression). Recently, there have been a number of papers, which have correlated epithelial to mesenchymal transition (EMT) with a CSC phenotype (52). EMT is a normal physiologic process that is important in development and in adults, for example in wound healing, but pathophysiologically is associated with tumor metastasis and organ fibrosis (see later discussion on fibrosis). Specific CBP/catenin antagonists can reverse this aberrant EMT in vivo (EMT also plays a critical role in the skin in hair loss etc. J Dermatol Sci. 2011 Jan; 61(1):7-13. Epub 2010 Dec. 5; epithelial-mesenchymal transition (EMT) plays important roles not only in the morphogenesis but also in wound repair, tissue fibrosis and cancer progression. Recently, regulatory mechanism of this process has been elaborately elucidated. EMT can be a new therapeutic target for treating skin ulcer, fibrosing alopecia, and malignant cutaneous cancers, including squamous cell carcinoma and melanoma).

[2] = system: SW620 xenograft; experiment: Nude mouse SW620 xenograft model of colon cancer; type: in vivo
Source text: Cancer. The importance of Wnt signaling in colorectal cancer is undisputed. Applicant's investigation on the therapeutic utility of ICG-001 therefore quite naturally began with colon cancer.

[3] = system: Wnt/catenin transcription (TOPFLASH) in SW480 colon carcinoma cells; experiment: TOPFLASH TCF/catenin luciferase reporter in SW480 colon carcinoma cells; type: cell-based; conditions: Homo sapiens
Source text: ICG-001. Applicant's pharmacologic tools were identified using cell-based forward chemical genomic screens of small molecule secondary structure template chemical libraries (22).

[4] = system: bleomycin-induced pulmonary fibrosis; experiment: Bleomycin-induced lung injury / pulmonary fibrosis; type: in vivo, mouse
[5] = system: rat type II lung epithelial cells; experiment: TGF-β1-induced EMT genes in lung epithelial cells; type: cell-based
Source text: Fibrosis. Idiopathic pulmonary fibrosis (IPF)/usual interstitial pneumonia (UIP), the most common of the idiopathic interstitial pneumonias, is a devastating, progressive disorder characterized by excessive fibroblast proliferation and extracellular matrix remodeling leading to lung destruction. There is currently no effective therapy for this uniformly fatal disease. An emerging paradigm proposes a central role for alveolar epithelial cell injury and dysregulated repair in the pathogenesis of IPF. Injury to the epithelium is thought to initiate a cascade of fibroblast activation and matrix deposition, which in predisposed hosts fails to resolve as it would in the course of normal wound repair. Epithelial cells undergo excessive apoptosis, whereas fibroblasts are less amenable to apoptosis and manifest increased survival. The well-characterized model of bleomycin-induced lung injury has been extensively used to investigate potential pathways involved in the pathogenesis of pulmonary fibrosis and to explore therapeutic approaches.

[6] = system: Adenosine Receptor A2B (ADORA2B); experiment: Gene expression array of cells in culture; type: cell-based; conditions: colonic epithelium, 10 uM
[7] = system: mitotic cells in the ventricular zone (VZ); experiment: Par3 localization assay of symmetric versus asymmetric divisions in the ventricular zone of embryonic brain; type: in vivo, mouse
Source text: Taking advantage of the ready uptake and penetration through the placental barrier of applicant's small molecule Wnt modulators, applicant designed a series of experiments to investigate symmetric versus asymmetric divisions in the ventricular zone (VZ) of the brain during mouse embryonic development. Timed pregnant mice were topically treated for various time periods (1-3 days) with DMSO (vehicle control), the CBP/catenin antagonist ICG-001 or the p300/catenin antagonist IQ-1. Using a previously described protocol (56), the localization of […] (Par3) and DNA was examined in mitotic cells in the VZ. Par3 distributes symmetrically in cells that divide symmetrically and asymmetrically in cells that divide asymmetrically, whereas the DNA distributes symmetrically between the 2 cells. Using fluorescence microscopy, the percentage of mitotic cells dividing symmetrically or asymmetrically could be quantified. […] Antagonizing the CBP/catenin interaction with ICG-001 had no apparent effect yielding similarly, approximately 21% asymmetric divisions. […] Importantly, this decrease in asymmetric divisions upon treatment with IQ-1 could be rescued back essentially to control levels (i.e. ˜21%) by treatment with a 2-fold excess of ICG-001. Even further divergence in symmetric versus asymmetric divisions could be seen upon prolonged treatments. For example, treatment with IQ-1 (i.e., antagonizing p300/catenin interaction leading to increased usage of CBP) for 3 days (E13.5-16.5) decreased asymmetric divisions compared to control from 31% to 7%. […] This reporter mouse expresses EGFP, driven by the Tis21 promoter, in cells that have undergone neurogenic differentiative divisions.
For example, Bultje et al. (Bultje R Neuron 63, 189-202, 2009) describe an assay to measure asymmetric distributions in the ventricular zone (vz) to evaluate asymmetric divisions during neurogenesis. Essentially this involves treating the animal (either adult or in utero) for a set period of time with compounds (either p.o., s.c., i.v. or topically) with compounds and then sacrificing the animal and examining the Par3 distribution (e.g., via immunohistochemistry) in mitotic cells vs. DNA distribution (e.g., using DAPI staining) Par3 distributes equally among the two daughter cells during symmetric division and unequally (essentially all in one daughter cell) during asymmetric differentiation.

[8] = system: PC-12 cells with mutant PS-1 (L286V); experiment: Neuronal differentiation of PC-12 cells with FAD mutant PS-1 (L286V); type: cell-based
Source text: However, the effects of PS-1 mutations on the stability of beta-catenin, TCF/beta-catenin signaling, and thereby its potential role in AD remain controversial. Applicant has shown that introduction of a FAD mutant PS-1 (L286V) into PC-12 cells causes increased TCF/beta-catenin signaling, leading to the inhibition of neurite outgrowth. […] In the CNS, EpB2 expression is associated with axonal guidance (16). […] In initial in vivo studies, applicant treated penta-transgenic mice that over express mutant APP (695) (Swedish (K670N, M671L), Florida (I716V) and London (V717I)) and PS-1 (M146L and L286V) mutations with ICG-001 for 2 months (months 2-4). These mice normally develop massive cerebral deposition of Aβ starting at 6 weeks of age.

## O=C1[C@H](Cc2ccc(O)cc2)N2C(=O)CCN(C(=O)NCc3ccccc3)[C@H]2CN1Cc1cccc2ccccc12 [ICG-001]
[1]
  ALDH activity: dramatically decreases
  side population (SP): dramatically decreases
[1]; ChIP
  recruitment of p300 to the CD24 promoter: increased recruitment
[1]; MDA-MB-231
  CD44 expression: decreasing
[1]; MDA-MB-231, 24h
  expression of cell surface CD24: significantly increased
[2]
  tumor growth: reducing tumor growth
[3]
  IC50: 30 µM
[4]; BAT-gal transgenic mice, intranasal bleomycin
  lacZ expression in airway and alveolar epithelium: significantly reduced
[4]; after bleomycin
  expression of genes associated with fibrosis, ECM deposition and EMT: essentially to the level of control
[4]; in vivo in the mouse
  expression of S100A4/FSP-1: significantly decreased
[4]; mouse model
  established fibrosis: could reverse established fibrosis
[4]; pretreatment
  severity of pulmonary fibrosis: significantly reduced the severity
[5]
  TGF-β1-induced up-regulation of α-SMA and type I collagen: prevents
[6]
  increase of expression of adenosine receptors (ADORA2B): ~10 ×
[7]; IQ-1 plus 2-fold excess of ICG-001
  asymmetric divisions in the VZ after IQ-1, rescued: approximately 21%
[7]; excess ICG-001
  defect in asymmetric divisions caused by IQ-1: corrects the defect
[7]; topical or oral administration to pregnant mice
  number of asymmetric divisions compared to vehicle control: does not affect
[7]; topical, 1 day, E13.5 to 14.5, DMSO approximately 21%
  asymmetric divisions in the VZ: approximately 21%
[8]
  EpB2 expression: again increased
  neuronal differentiation and neurite outgrowth: rescues the defects
[8]; NGF-induced differentiation
  expression of GAP43: dramatically increased
